Source: PubChem BioAssay (NCI)
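Method: 48-hour compound exposure of cells in 96-well plates, five concentrations, linear interpolation of endpoints. Definition used: TGI = concentration required for complete inhibition of growth.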

Key:
Assay in all cases: DTP human tumour cell line panel, 48 h
MALME-3M melanoma = test system: MALME-3M melanoma
CAKI-1 renal = test system: CAKI-1 renal
786-0 renal = test system: 786-0 renal
NCI-H23 lung = test system: NCI-H23 lung
HL-60(TB) leukemia = test system: HL-60(TB) leukemia
M14 melanoma = test system: M14 melanoma
TK-10 renal = test system: TK-10 renal
UO-31 renal = test system: UO-31 renal
SNB-78 CNS = test system: SNB-78 CNS
HCT-15 colon = test system: HCT-15 colon
SNB-19 CNS = test system: SNB-19 CNS
NCI-H522 lung = test system: NCI-H522 lung
HT29 colon = test system: HT29 colon
NCI-H460 lung = test system: NCI-H460 lung
SK-OV-3 ovarian = test system: SK-OV-3 ovarian
A498 renal = test system: A498 renal
SK-MEL-28 melanoma = test system: SK-MEL-28 melanoma
SF-295 CNS = test system: SF-295 CNS
RXF-631 renal = test system: RXF-631 renal
KM20L2 colon = test system: KM20L2 colon
HOP-62 NSCLC = test system: HOP-62 NSCLC
DMS 273 small cell lung = test system: DMS 273 small cell lung
SW-620 colon = test system: SW-620 colon
CCRF-CEM leukemia = test system: CCRF-CEM leukemia
SK-MEL-2 melanoma = test system: SK-MEL-2 melanoma
HCC-2998 colon = test system: HCC-2998 colon
M19-MEL melanoma = test system: M19-MEL melanoma
LXFL 529 NSCLC = test system: LXFL 529 NSCLC
OVCAR-5 ovarian = test system: OVCAR-5 ovarian
KM12 colon = test system: KM12 colon
UACC-257 melanoma = test system: UACC-257 melanoma
SF-539 CNS = test system: SF-539 CNS
SF-268 CNS = test system: SF-268 CNS
SNB-75 CNS = test system: SNB-75 CNS
SK-MEL-5 melanoma = test system: SK-MEL-5 melanoma
ACHN renal = test system: ACHN renal
DLD-1 colon = test system: DLD-1 colon
OVCAR-4 ovarian = test system: OVCAR-4 ovarian
MOLT-4 leukemia = test system: MOLT-4 leukemia
U251 CNS = test system: U251 CNS
UACC-62 melanoma = test system: UACC-62 melanoma
IGROV1 ovarian = test system: IGROV1 ovarian
OVCAR-3 ovarian = test system: OVCAR-3 ovarian
RPMI-8226 leukemia = test system: RPMI-8226 leukemia
COLO 205 colon = test system: COLO 205 colon
RXF 393 renal = test system: RXF 393 renal
DMS 114 small cell lung = test system: DMS 114 small cell lung
HOP-92 NSCLC = test system: HOP-92 NSCLC
OVCAR-8 ovarian = test system: OVCAR-8 ovarian
SN12C renal = test system: SN12C renal
A549 NSCLC = test system: A549 NSCLC
K-562 leukemia = test system: K-562 leukemia
NCI-H226 lung = test system: NCI-H226 lung
LOX IMVI melanoma = test system: LOX IMVI melanoma
EKVX NSCLC = test system: EKVX NSCLC
HCT-116 colon = test system: HCT-116 colon
SR leukemia = test system: SR leukemia
XF 498 CNS = test system: XF 498 CNS
HOP-18 NSCLC = test system: HOP-18 NSCLC

Measured: TGI

O=C(O)CCC1CCc2cccc3occ1c23 (centres undefined)
not listed: SR leukemia | XF 498 CNS | HOP-18 NSCLC
> 100 µM: all other assays above

CCC1=CC2CC(C(=O)OC)C1(N(C)C)C2=O (centres undefined)
not listed: MALME-3M melanoma | CAKI-1 renal | 786-0 renal | HCT-15 colon | KM20L2 colon | SW-620 colon | SK-MEL-2 melanoma | HCC-2998 colon | LXFL 529 NSCLC | SF-539 CNS | SNB-75 CNS | SK-MEL-5 melanoma | DLD-1 colon | OVCAR-4 ovarian | OVCAR-3 ovarian | RPMI-8226 leukemia | COLO 205 colon | SN12C renal | K-562 leukemia | NCI-H226 lung | LOX IMVI melanoma | XF 498 CNS | HOP-18 NSCLC
> 100 µM: all other assays above

O=C1CCC2(c3ccccc3)Nc3cc(Cl)ccc3N12 (centres undefined)
57.9 µM: MOLT-4 leukemia
64.9 µM: SNB-75 CNS
32.4 µM: SK-MEL-5 melanoma
40.7 µM: HOP-92 NSCLC
62.8 µM: OVCAR-3 ovarian
71.5 µM: UACC-257 melanoma
58.6 µM: RPMI-8226 leukemia
82.6 µM: M19-MEL melanoma
75.5 µM: MALME-3M melanoma
48.1 µM: HL-60(TB) leukemia
57.3 µM: DMS 114 small cell lung
96 µM: SF-295 CNS
96.1 µM: ACHN renal
60.7 µM: NCI-H23 lung
63.3 µM: UO-31 renal
85.1 µM: SK-OV-3 ovarian
56.4 µM: UACC-62 melanoma
75.2 µM: CCRF-CEM leukemia
98.7 µM: A498 renal
31.6 µM: COLO 205 colon
87.1 µM: CAKI-1 renal
56.6 µM: XF 498 CNS
65.1 µM: NCI-H226 lung
53.5 µM: SK-MEL-2 melanoma
not listed: SNB-19 CNS | DMS 273 small cell lung | HCT-116 colon | SR leukemia | HOP-18 NSCLC
> 100 µM: all other assays above

CSc1nc(-c2ccccc2)c2c(n1)-c1ccccc1CC2
not listed: SNB-78 CNS | HCT-15 colon | DMS 273 small cell lung | HCC-2998 colon | SF-539 CNS | ACHN renal
> 100 µM: all other assays above
